Data from BigSolDB 2.1.

Details: in water

Structure (SMILES) | solubility (mole fraction) (293.15 K) | solubility (mole fraction) (298.15 K) | solubility (mole fraction) (303.15 K) | solubility (mole fraction) (308.15 K) | solubility (mole fraction) (313.15 K) | solubility (mole fraction) (318.15 K) | solubility (mole fraction) (323.15 K)
CCn1cc(C(=O)O)c(=O)c2cc(F)c(N3CCNCC3)cc21 | 2.02e-05 | 2.27e-05 | 2.54e-05 | 2.92e-05 | 3.38e-05 | 3.93e-05 | 4.69e-05
CCn1cc(C(=O)O)c(=O)c2cnc(N3CCNCC3)nc21 | 1.85e-05 | 2.04e-05 | 2.3e-05 | 2.63e-05 | 3.02e-05 | 3.4e-05 | 3.83e-05
CCn1cc(C(=O)O)c(=O)c2cc(F)c(N3CCNC(C)C3)c(F)c21 (stereo unspecified) | 3.48e-05 | 3.77e-05 | 4.33e-05 | 4.9e-05 | 5.63e-05 | 6.54e-05 | 7.57e-05
